Key:
[1] = target: Phosphatidylinositol 4,5-bisphosphate 3-kinase catalytic subunit gamma isoform (Homo sapiens, UniProt P48736); assay: (§1) PI3K-gamma Scintillation Proximity Assay: Materials: [γ-33P]ATP (10 mCi/mL) and Wheat Germ Agglutinin (WGA) YSi SPA Scintillation Beads was purchased from Perkin Elmer (Waltham, Mass.). Lipid kinase substrate, D-myo-Phosphatidylinositol 4,5-bisphosphate (PtdIns(4,5)P2)D (+)-sn-1,2-di-O-octanoylglyceryl, 3-O-phospho linked (PIP2), CAS 204858-53-7, was purchased from Echelon Biosciences (Salt Lake City, Utah). PI3Kγ (p110γ) Recombinant Human Protein was purchased from Life technology (Grand Island, N.Y.). ATP, MgCl2, DTT, EDTA, MOPS and CHAPS were purchased from Sigma Aldrich (St. Louis, Mo.).The kinase reaction was conducted in polystyrene 384-well Greiner Bio-one white plate from Thermo Fisher Scientific in a final volume of 25 μL. Inhibitors were first diluted serially in DMSO and added to the plate wells before the addition of other reaction components. The final concentration of DMSO in the assay was 2%. The PI3Kγ assay was carried out at room temperature in 20 mM MOPS, pH 6.7, 10 mM MgCl2, 5 mM DTT and CHAPS 0.03%. Reactions were initiated by the addition of ATP, the final reaction mixture consisted of 20 μM PIP2, 2 μM ATP, 0.5 μCi [γ-33P] ATP, 13 nM PI3Kγ. Reactions were incubated for 120 min and terminated by the addition of 40 μL SPA beads suspended in quench buffer: 163 mM potassium phosphate pH 7.8, 20% glycerol, 25 mM EDTA. The final concentration of SPA beads is 1.0 mg/mL. […]
Sequence of Phosphatidylinositol 4,5-bisphosphate 3-kinase catalytic subunit gamma isoform (P48736 whole entry, canonical isoform): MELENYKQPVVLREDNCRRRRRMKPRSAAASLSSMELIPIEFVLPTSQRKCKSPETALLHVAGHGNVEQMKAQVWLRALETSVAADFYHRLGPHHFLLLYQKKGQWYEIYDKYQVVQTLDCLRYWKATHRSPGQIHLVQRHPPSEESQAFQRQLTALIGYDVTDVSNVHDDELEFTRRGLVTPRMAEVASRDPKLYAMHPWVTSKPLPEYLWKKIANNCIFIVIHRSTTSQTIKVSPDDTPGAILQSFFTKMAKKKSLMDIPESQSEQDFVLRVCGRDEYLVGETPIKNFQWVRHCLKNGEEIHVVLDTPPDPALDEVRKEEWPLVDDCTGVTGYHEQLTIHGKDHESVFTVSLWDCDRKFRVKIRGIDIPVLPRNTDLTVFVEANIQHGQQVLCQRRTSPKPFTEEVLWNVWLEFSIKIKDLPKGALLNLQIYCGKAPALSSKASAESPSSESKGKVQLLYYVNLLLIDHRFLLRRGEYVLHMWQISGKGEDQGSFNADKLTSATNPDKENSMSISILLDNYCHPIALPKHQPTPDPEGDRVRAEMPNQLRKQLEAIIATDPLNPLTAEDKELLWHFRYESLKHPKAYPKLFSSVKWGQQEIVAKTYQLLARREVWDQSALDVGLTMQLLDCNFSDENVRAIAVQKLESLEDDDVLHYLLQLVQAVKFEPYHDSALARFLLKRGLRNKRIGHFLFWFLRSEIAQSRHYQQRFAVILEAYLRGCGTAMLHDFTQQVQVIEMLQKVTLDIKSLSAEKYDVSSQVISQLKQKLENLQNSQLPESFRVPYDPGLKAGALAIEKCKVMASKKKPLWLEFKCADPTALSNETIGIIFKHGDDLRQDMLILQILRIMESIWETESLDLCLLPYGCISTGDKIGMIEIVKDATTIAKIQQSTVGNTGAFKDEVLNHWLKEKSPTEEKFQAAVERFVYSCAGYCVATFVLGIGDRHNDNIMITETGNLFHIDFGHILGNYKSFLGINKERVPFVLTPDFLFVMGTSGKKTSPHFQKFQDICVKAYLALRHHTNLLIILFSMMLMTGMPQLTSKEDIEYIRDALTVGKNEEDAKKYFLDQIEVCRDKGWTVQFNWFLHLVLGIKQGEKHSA

[2] = target: T1, Phosphatidylinositol 4,5-bisphosphate 3-kinase catalytic subunit delta isoform (Homo sapiens, UniProt O00329); assay: as §1, with “PI3Kdelta” for “PI3K-gamma”, “PI3Kδ (p110δ/p85α)” for “PI3Kγ (p110γ)”, “Eurofins (St Charles, Mo.).” for “Life technology (Grand Island, N.Y.).”, “PI3Kδ” for “PI3Kγ”, “3.4” for “13”, “PI3Kδ.” for “PI3Kγ.”
T1 sequence (O00329 whole entry): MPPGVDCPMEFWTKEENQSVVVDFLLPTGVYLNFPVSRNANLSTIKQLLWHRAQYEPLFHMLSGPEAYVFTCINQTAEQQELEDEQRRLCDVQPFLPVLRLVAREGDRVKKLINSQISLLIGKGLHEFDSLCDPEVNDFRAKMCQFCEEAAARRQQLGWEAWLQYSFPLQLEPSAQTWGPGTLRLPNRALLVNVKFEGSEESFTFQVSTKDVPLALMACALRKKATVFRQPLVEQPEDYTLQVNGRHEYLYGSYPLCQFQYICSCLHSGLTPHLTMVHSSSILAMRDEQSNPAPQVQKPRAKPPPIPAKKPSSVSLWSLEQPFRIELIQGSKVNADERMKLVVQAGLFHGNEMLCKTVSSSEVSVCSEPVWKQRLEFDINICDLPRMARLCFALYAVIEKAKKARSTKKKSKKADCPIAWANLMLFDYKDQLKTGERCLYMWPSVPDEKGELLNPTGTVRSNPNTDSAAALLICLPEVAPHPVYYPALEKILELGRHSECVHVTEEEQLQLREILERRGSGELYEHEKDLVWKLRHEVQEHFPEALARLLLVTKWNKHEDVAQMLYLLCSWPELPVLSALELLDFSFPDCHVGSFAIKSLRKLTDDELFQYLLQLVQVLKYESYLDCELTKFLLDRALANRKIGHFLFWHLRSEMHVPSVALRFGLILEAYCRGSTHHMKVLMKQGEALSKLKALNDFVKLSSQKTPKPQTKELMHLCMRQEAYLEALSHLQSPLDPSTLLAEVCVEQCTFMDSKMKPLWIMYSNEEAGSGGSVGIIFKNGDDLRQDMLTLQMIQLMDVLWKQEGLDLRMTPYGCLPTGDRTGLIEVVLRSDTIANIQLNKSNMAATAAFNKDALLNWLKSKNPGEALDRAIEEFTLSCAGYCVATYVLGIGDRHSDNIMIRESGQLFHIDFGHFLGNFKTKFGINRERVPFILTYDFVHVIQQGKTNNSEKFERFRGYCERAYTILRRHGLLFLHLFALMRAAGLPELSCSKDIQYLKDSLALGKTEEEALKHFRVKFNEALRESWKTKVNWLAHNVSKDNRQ

Cc1ncc(-c2nc(-c3cc(C(O)(C(N)=O)C(F)(F)F)ccc3C)cnc2N)s1 (configuration not stated) was tested. Which IC50 [1] did it give?
The IC50 was < 100 nM.

And the IC50 [2]?
Its IC50 is < 100 nM.
